One data set has as its system IgE. Put plainly: Pharmacodynamic study: clearance of target IgE by OMA conjugates in mice, serum hIgE by ELISA. Format: in vivo, C57BL/6 mice. The following applies: 0.1 mg/kg of OMA conjugate, IgE 1 mg/kg. As to the method:
Protocol: Female C57BL/6 mice were IV dosed 1 mg/kg of IgE followed by 0.1, 0.3, 1, or 3 mg/kg of OMA-I-163 16 hours later. Serum samples were collected at 0 (pre-bleed), 1, 4, and 24 hours after OMA-I-163 dose with 3 animals per timepoint.
Serum hIgE and hIgG concentrations were measured by ELISA.
Protocol: Female C57BL/6 mice were IV dosed 1 mg/kg of IgE followed by 0.1 mg/kg of OMA-I-163, OMA-I-162, OMA-I-161, and OMA-I-160 16 hours later. Serum samples were collected at 0 (pre-bleed), 1, 4, and 24 hours after LYTAC dose with 3 animals per timepoint.
Serum concentrations were measured by Elisa.
(An ELISA detects its analyte on a solid surface through an enzyme-linked reagent.)

For data set [1], the system named is HepG2 cells. As to the kind of experiment: Uptake of Alexa488-labelled target IgE bound to omalizumab (OMA) conjugates in HepG2 cells, flow cytometry. Format: cell-based, human. As to conditions: omalizumab (anti-IgE) conjugate bound to IgE-Alexa488, equal molar ratios; 1 hour. As to the method: (§1) The omalizumab conjugates of Example 60 were bound to IgE-Alexa488 (prepared according to Example 62), as follows: equal molar ratios of omalizumab (anti-IgE) conjugate and IgE-Alexa488 were added in tissue culture media for 30 minutes at room temperature. The resulting anti-IgE conjugate:IgE antibody-Alexa488 compositions were added to HepG2 cells (100 k cells/50 ul per well, n=2), and Alexa488 fluorescence levels in the cells were measured at 1 hour by flow cytometry. As the fluorescently labelled target (IgE antibody) accumulates in cells, the fluorescence presents a way to measure total intracellular uptake by cells over time.
as §1, with “OMA Ab” for “The omalizumab”, “example compounds I-160-I-163 and I-141” for “Example 60”, “by adapting procedure in” for “according to”, “61),” for “62),”, “OMA(anti-IgE)” for “omalizumab (anti-IgE)”
(In flow cytometry, cells or beads pass a laser one at a time.)

A short description of data set [2]: Pharmacokinetic study of OMA-linked compounds in mice, serum hIgG by ELISA. Format: in vivo. As to conditions: IV 5 mg/kg, female C57BL/6 mice, up to 168 hours. The protocol:
Pharmacokinetic (PK) studies were undertaken to determine the pharmacokinetic profile of various OMA linked example compounds (I-161-I-163).
Protocol: Female C57BL/6 mice are dosed via IV with 5 mg/kg of OMA-example compounds, and OMA-reference. Serum samples are collected at 0.083, 0.25, 0.5, 1, 2, 4, 8, 24, 48, 72, and 168 hours after dosing with 3 animals per timepoint.
Serum hIgG concentrations were measured by ELISA.

The subject of data set [3] is HepG2 cells. As to the kind of experiment: Uptake of IgG2a antibody conjugates into HepG2 cells. The format is cell-based, human. As to conditions: one hour incubation. The protocol: The uptake of antibody conjugates of exemplary M6PR or ASGPR binding compounds was assessed in Hep G2 cells, using a method similar to that described in Example above.

Entries after “also recorded” stand apart in the source; their conditions may differ.

Take `CC(=O)N[C@@H]1[C@@H](O)[C@@H](O)[C@@H](CO)O[C@H]1SCCC(=O)NCCCCCNC(=O)CCOCC(COCCC(=O)NCCCCCNC(=O)CCS[C@@H]1O[C@H](CO)[C@H](O)[C@H](O)[C@H]1NC(C)=O)(COCCC(=O)NCCCCCNC(=O)CCS[C@@H]1O[C@H](CO)[C@H](O)[C@H](O)[C@H]1NC(C)=O)NC(=O)CCCCCCCCCCC(=O)NCCN1C(=O)C=CC1=O` [Compound I-162]: the “IgE clearance efficiency compared to reference OMA-I-163” value with IgE is reported as “clear IgE more efficiently than the reference compound”. In the data set with HepG2 cells [1], the “relative uptake activity of Alexa488 labeled-target IgE in HepG2 cells” value (shortened to “relative uptake activity”) is on record as “most active anomeric position variants”. For the same molecule, in data set [2], the “PK profile / clearance of OMA-linked compound (serum hIgG)” value (from here on “PK profile / clearance”) was “distinct PK profiles from reference compound I-163”. For `O=C(CCOCCOCCOCCOCCn1cc(CCCCNC(=S)Nc2ccc(O[C@H]3O[C@H](CCP(=O)(O)O)[C@@H](O)[C@H](O)[C@@H]3O)cc2)nn1)Oc1c(F)c(F)c(F)c(F)c1F` [Compound 520, reference compound], the “HepG2 cellular uptake of antibody conjugate (cell fluorescence, MFI)” value (shortened to “HepG2 cellular uptake”) in the data set on HepG2 cells [3] is reported as “comparable HepG2 cellular uptake; also recorded: comparable robust uptake into HepG2 cells”.

Regarding `CC(=O)N[C@@H]1[C@@H](O)[C@@H](O)[C@@H](CO)O[C@H]1Cc1cn(CCOCCOCCOCCNC(=O)CCC(CCC(=O)NCCOCCOCCOCCn2cc(C[C@@H]3O[C@H](CO)[C@H](O)[C@H](O)[C@H]3NC(C)=O)nn2)(CCC(=O)NCCOCCOCCOCCn2cc(C[C@@H]3O[C@H](CO)[C@H](O)[C@H](O)[C@H]3NC(C)=O)nn2)NC(=O)CCCCCCCCCCC(=O)Oc2c(F)c(F)c(F)c(F)c2F)nn1` [Compound I-140, perfluorophenyl 1-(4-(((2S,3R,4R,5R,6R)-3-acetamido-4,5-dihydroxy-6-(hydroxymethyl)tetrahydro-2H-pyran-2-yl)methyl)-1H-1,2,3-triazol-1-yl)-16,16-bis(1-(4-(((2S,3R,4R,5R,6R)-3-acetamido-4,5-dihydroxy-6-(hydroxymethyl)tetrahydro-2H-pyran-2-yl)methyl)-1H-1,2,3-triazol-1-yl)-13-oxo-3,6,9-trioxa-12-azapentadecan-15-yl)-13,18-dioxo-3,6,9-trioxa-12,17-diazanonacosan-29-oate], the “relative uptake activity” value with HepG2 cells [1] was “comparable activity to the conjugate having the 0-glycoside”.

Turning to `CO[C@@H]1O[C@H](CO)[C@H](O)[C@H](O)[C@H]1NC(=O)COCCc1cn(CCOCCOCCNC(=O)CCC(CCC(=O)NCCOCCOCCn2cc(CCOCC(=O)N[C@H]3[C@H](OC)O[C@H](CO)[C@H](O)[C@@H]3O)nn2)(CCC(=O)NCCOCCOCCn2cc(CCOCC(=O)N[C@H]3[C@H](OC)O[C@H](CO)[C@H](O)[C@@H]3O)nn2)NC(=O)CCCCCCCCCCC(=O)Oc2c(F)c(F)c(F)c(F)c2F)nn1` [Compound I-155], the “relative uptake activity” value in the data set with HepG2 cells [1] is reported as “less active than the 1-position linked conjugate”. For `CC(=O)N[C@H]1[C@H](OCCCCC(=O)NCCCNC(=O)CCOCC(COCCC(=O)NCCCNC(=O)CCCCO[C@@H]2O[C@H](CO)[C@H](O)[C@H](O)[C@H]2NC(C)=O)(COCCC(=O)NCCCNC(=O)CCCCO[C@@H]2O[C@H](CO)[C@H](O)[C@H](O)[C@H]2NC(C)=O)NC(=O)CCCCCCCCCCCN2C(=O)C=CC2=O)O[C@H](CO)[C@H](O)[C@@H]1O` [Compound 1210], the “HepG2 cellular uptake” value in the data set on HepG2 cells [3] was “comparable HepG2 cellular uptake”. For the molecule `CC(=O)N[C@H]1[C@H](OCCCCC(=O)NCCCNC(=O)CCOCC(COCCC(=O)NCCCNC(=O)CCCCO[C@@H]2O[C@H](CO)[C@H](O)[C@H](O)[C@H]2NC(C)=O)(COCCC(=O)NCCCNC(=O)CCCCO[C@@H]2O[C@H](CO)[C@H](O)[C@H](O)[C@H]2NC(C)=O)NC(=O)CCOCCOCCOCCOCCC(=O)Oc2c(F)c(F)c(F)c(F)c2F)O[C@H](CO)[C@H](O)[C@@H]1O` [Compound I-145], in the data set with HepG2 cells [1], the “relative uptake activity” value was “superior uptake to conjugates having a valency of 2 or 1”. Regarding `CC(=O)N[C@H]1[C@H](OCCCCC(=O)NCCCNC(=O)CCOCC(COCCC(=O)NCCCNC(=O)CCCCO[C@@H]2O[C@H](CO)[C@H](O)[C@H](O)[C@H]2NC(C)=O)(COCCC(=O)NCCCNC(=O)CCCCO[C@@H]2O[C@H](CO)[C@H](O)[C@H](O)[C@H]2NC(C)=O)NC(=O)CCCCCCCCCCC(=O)Oc2c(F)c(F)c(F)c(F)c2F)O[C@H](CO)[C@H](O)[C@@H]1O` [Compound 1209], the “HepG2 cellular uptake” value with HepG2 cells [3] is on record as “comparable HepG2 cellular uptake”. Turning to `CC(=O)N[C@H]1[C@H](OCCCCC(=O)NCCCNC(=O)CCOCC(COCCC(=O)NCCCNC(=O)CCCCO[C@@H]2O[C@H](CO)[C@H](O)[C@H](O)[C@H]2NC(C)=O)(COCCC(=O)NCCCNC(=O)CCCCO[C@@H]2O[C@H](CO)[C@H](O)[C@H](O)[C@H]2NC(C)=O)NC(=O)CCc2cn(CCOCCOCCOCCOCCOCCOCCOCCOCCOCCOCCOCCOCCOCCOCCOCCOCCOCCOCCOCCOCCOCCOCCOCCOCCC(=O)Oc3c(F)c(F)c(F)c(F)c3F)nn2)O[C@H](CO)[C@H](O)[C@@H]1O` [Compound I-137], in the data set on HepG2 cells [1], the “relative uptake activity” value was “comparable activity to the reference conjugate; also recorded: comparable activity to a reference conjugate”. The same measure, in the same setting: the result for `CC(=O)N[C@@H]1[C@@H](O)[C@@H](O)[C@@H](CO)O[C@H]1SCCC(=O)NCCCCCNC(=O)CCOCC(COCCC(=O)NCCCCCNC(=O)CCS[C@@H]1O[C@H](CO)[C@H](O)[C@H](O)[C@H]1NC(C)=O)(COCCC(=O)NCCCCCNC(=O)CCS[C@@H]1O[C@H](CO)[C@H](O)[C@H](O)[C@H]1NC(C)=O)NC(=O)CCCCCCCCCCC(=O)Oc1c(F)c(F)c(F)c(F)c1F` [Compound I-141, perfluorophenyl 1-(((2S,3R,4R,5R,6R)-3-acetamido-4,5-dihydroxy-6-(hydroxymethyl)tetrahydro-2H-pyran-2-yl)thio)-16,16-bis((3-((5-(3-(((2S,3R,4R,5R,6R)-3-acetamido-4,5-dihydroxy-6-(hydroxymethyl)tetrahydro-2H-pyran-2-yl)thio)propanamido)pentyl)amino)-3-oxopropoxy)methyl)-3,11,18-trioxo-14-oxa-4,10,17-triazanonacosan-29-oate] reads “superior uptake to that of the 0-glycoside”. For `CC(=O)N[C@@H]1[C@@H](O)[C@@H](O)[C@@H](CO)O[C@H]1Cc1cn(CCOCCOCCOCCNC(=O)CCC(CCC(=O)NCCOCCOCCOCCn2cc(C[C@@H]3O[C@H](CO)[C@H](O)[C@H](O)[C@H]3NC(C)=O)nn2)(CCC(=O)NCCOCCOCCOCCn2cc(C[C@@H]3O[C@H](CO)[C@H](O)[C@H](O)[C@H]3NC(C)=O)nn2)NC(=O)CCCCCCCCCCC(=O)NCCN2C(=O)C=CC2=O)nn1` [Compound I-160], the “IgE clearance efficiency compared to reference OMA-I-163” value in the data set on IgE is on record as “clear IgE more efficiently than the reference compound”. For the same molecule, in the data set on HepG2 cells [1], the “relative uptake activity” value was “most active anomeric position variants”. In data set [2], the “PK profile / clearance” value is reported as “distinct PK profiles from reference compound I-163”.

In the case of `CC(=O)N[C@@H]1[C@@H](O)[C@@H](O)[C@@H](CO)C[C@H]1n1cc(COCCOCCOCCNC(=O)CCC(CCC(=O)NCCOCCOCCOCc2cn([C@@H]3O[C@H](CO)[C@H](O)[C@H](O)[C@H]3NC(C)=O)nn2)(CCC(=O)NCCOCCOCCOCc2cn([C@@H]3O[C@H](CO)[C@H](O)[C@H](O)[C@H]3NC(C)=O)nn2)NC(=O)CCCCCCCCCCC(=O)NCCN2C(=O)C=CC2=O)nn1` [Compound I-161], in the data set with IgE, the “IgE clearance efficiency compared to reference OMA-I-163” value is “clear IgE more efficiently than the reference compound”. Besides, the “relative uptake activity” value in the data set on HepG2 cells [1] is recorded as “essentially identical activity to the reference conjugate; also recorded: most active anomeric position variants”. Also, in data set [2], the “PK profile / clearance” value is given as “distinct PK profiles from reference compound I-163”.

The record behind these values is US12258332B2, “ASGPR cell surface receptor binding compounds and conjugates” (Lycia Therapeutics, Inc., priority 2021, dated 2025).
